Laboratory results: patent US7417061B2, “Oxadiazole compounds and compositions for delivering active agents” (MHR Institutional Partners IIA LP, priority 1999, dated 2008)

Assay: Oral delivery of rhGH with delivery agent compound in rats; serum rhGH by immunoassay
Assay type: in vivo, rat
Conditions: male Sprague-Dawley rats, compound 200 mg/kg, rhGH 3 mg/kg, 1 ml/kg, pooled samples (except compound 1)
Experimental: Oral gavage (PO) and/or intracolonic (IC) dosing solutions of delivery agent compound and rhGH in phosphate buffer were prepared. A solution of the compound was made either with the sodium salt of the compound or by converting the free acid to its sodium salt. Typically, a solution of the compound was prepared in phosphate buffer and stirred, adding one equivalent of sodium hydroxide (1.0 N) when making the sodium salt. The final dosing solutions were prepared by mixing the compound solution with an rhGH stock solution (15 mg rhGH/ml) and diluting to the desired volume (usually 3.0 ml). The compounds and rhGH dose amounts are listed below in Table 3.
The typical dosing and sampling protocols were as follows. Male Sprague-Dawley rats weighing between 200-250 g were fasted for 24 hours and administered ketamine (44 mg/kg) and chlorpromazine (1.5 mg/kg) 15 minutes prior to dosing. A dosing group of five rats was administered one of the dosing solutions. For oral gavage (PO), an 11 cm Rusch 8 French catheter was adapted to a 1 ml syringe with a pipette tip. The syringe was filled with dosing solution by drawing the solution through the catheter, which was then wiped dry. The catheter was placed down the esophagus leaving 1 cm of tubing past the rat's incisors. Solution was administered by pressing the syringe plunger. For intracolonic (IC) dosing, a 7.5 cm Rusch catheter tube (French 8 or 6) was adapted to a syringe with an Eppendorf pipette tip. The syringe was filled with the dosing solution by drawing the solution through the catheter tube. The catheter tube was wiped dry. K-Y jelly was applied to the tip, avoiding contact with the eye of the tube, and the tube was inserted into the colon through the anus until the tube was no longer visible. The solution was injected by pressing the syringe plunger, and the tube was removed.
Blood samples were collected serially from the tail artery, typically at 0, 15, 30, 45, 60 and 90 minutes after oral administration and 0, 10, 20, 30, 60 and 90 minutes after IC administration. The five samples from each time period were pooled (except for where compound 1 was dosed). Serum rHGH concentrations were quantified by an rHGH immunoassay test kit (Kit # K1F4015 from Genzyme Corporation Inc., Cambridge, Mass.). Previous studies indicated baseline values of about zero.
The maximum concentration for each group and the area under the curve (AUC), when available, are reported below in Table 3.

| Compound | Mean Peak Serum [rhGH] [ng/mL] |
| --- | --- |
| Cc1nnc(CCCCCCC(=O)O)o1 [Compound 12] | 0 |
| COc1ccc(-c2nnc(CCCCC(=O)O)o2)c(O)c1 [Compound 9] | 14.25 |
| O=C(O)CCCCCCc1nnc(-c2cc(Cl)ccc2O)o1 [Compound 5] | 14.64 |
| O=C(O)CCCCCCc1nnc(-c2cc(Cl)cc(Cl)c2O)o1 [Compound 6] | 0 |
